Assay results: patent US20150299120A1, “Spirohydantoin compounds and their use as selective androgen receptor modulators” (NOVARTIS AG, priority 2012, published 2015)
Like-named read-outs stand apart in the source and are kept apart here.

Legend:
[1] = target: T1, androgen receptor (AR) (Homo sapiens, UniProt P10275); assay: Test 1: androgen receptor transcriptional activation (2XIDR17-luciferase) assay in transfected C2C12 cells; format: cell-based; settings: for Emax: C2C12, C2C12 cells, percentage activity relative to 1 μM DHT, read-out: Biological activity (C2C12 cell) Emax % (converted); for EC50: mouse myoblastic C2C12 cells transfected with full-length AR and 2XIDR17-luciferase; for % Biological activity (C2C12 cell) 100 nM / % Biological activity (C2C12 cell) 5 μM: C2C12 cells, relative to 1 μM DHT; for % Biological activity (C2C12 cell) 100 nM: compound at 100 nM; for % Biological activity (C2C12 cell) 5 μM: compound at 5 μM
T1 construct: transfecting C2C12 cells with a plasmid containing full-length AR; expressed in transfected cells; host or cells: mouse myoblastic C2C12 cells (ATCC CRL-1772), transiently transfected with AR-FL in pcDNA 3.1(+)
T1 sequence (P10275 1-920): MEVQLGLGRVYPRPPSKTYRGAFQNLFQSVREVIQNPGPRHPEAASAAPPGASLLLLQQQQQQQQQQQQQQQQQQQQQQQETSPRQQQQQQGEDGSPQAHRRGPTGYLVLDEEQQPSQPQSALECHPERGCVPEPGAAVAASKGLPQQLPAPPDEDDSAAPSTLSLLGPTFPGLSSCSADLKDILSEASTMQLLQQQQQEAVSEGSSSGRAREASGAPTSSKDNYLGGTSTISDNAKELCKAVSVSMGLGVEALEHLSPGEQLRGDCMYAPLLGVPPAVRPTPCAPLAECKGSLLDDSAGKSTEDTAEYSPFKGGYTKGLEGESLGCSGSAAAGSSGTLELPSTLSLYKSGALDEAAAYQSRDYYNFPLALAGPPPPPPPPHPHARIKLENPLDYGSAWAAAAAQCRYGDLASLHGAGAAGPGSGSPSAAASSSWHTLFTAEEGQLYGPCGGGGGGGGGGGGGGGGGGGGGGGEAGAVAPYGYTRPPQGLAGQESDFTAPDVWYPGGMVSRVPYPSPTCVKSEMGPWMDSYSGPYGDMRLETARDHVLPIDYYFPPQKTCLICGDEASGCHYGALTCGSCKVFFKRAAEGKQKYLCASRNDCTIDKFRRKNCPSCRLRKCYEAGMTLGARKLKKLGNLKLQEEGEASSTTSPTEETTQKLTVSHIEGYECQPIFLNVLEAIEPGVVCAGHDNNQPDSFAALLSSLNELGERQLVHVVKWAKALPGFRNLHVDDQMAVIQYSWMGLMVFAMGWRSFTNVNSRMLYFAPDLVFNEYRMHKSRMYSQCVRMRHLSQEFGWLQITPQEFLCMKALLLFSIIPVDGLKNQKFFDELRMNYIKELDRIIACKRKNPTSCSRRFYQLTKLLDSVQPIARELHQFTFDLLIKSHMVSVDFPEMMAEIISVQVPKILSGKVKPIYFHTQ
Method: A suitable assay to determine the ability of a ligand to transcriptionally activate androgen receptor (AR) is carried out using mouse myoblastic C2C12 cells. The assay involves transfecting C2C12 cells with a plasmid containing full-length AR along with an AR response element linked to luciferase (2XIDR17). The luminescence read-out at the end of the assay is measured using Victor 3 and is a direct measure of the transcriptional activity. The assay has been validated using the reference compound, BMS-564929, for which EC50 values have been reported in a similar set-up.
C2C12 cells were obtained from ATCC (Cat #CRL-1772) and maintained in DMEM modified to contain 4 mM L-glutamine, 4.5 g/L glucose, 1 mM sodium pyruvate and 1.5 g/L sodium bicarbonate and 10% FBS.
AR-FL in pcDNA 3.1(+) and 2XIDR17 in pGL4.26 plasmids prepared using Genelute plasmid miniprep kit from Sigma Cat #PLED35 Steadyglow Luciferase assay system Promega Cat #E2550
• C2C12 cells were seeded in a 96-well plate in DMEM (Dulbecco's Modified Eagle Medium) without phenol red and containing 10% CS-FBS (Charcoal-stripped Fetal Bovine Serum) at 8000 cells/well. • The next day, cells were transfected with an equimolar ratio of (Androgen Receptor-Full length) AR-FL and 2XIDR17-Luciferase at a total plasmid concentration of 200 ng/well using Lipofectamine 2000 following manufacturer's protocol. • For the transfection, 83 ng of AR-FL and 117 ng of 2XIDR17-Luciferase were in 12.5 μl of OptiMEM—Mix A. 0.4 μl of Lipofectamine 2000 was added to 12.5 μl of OptiMEM and incubated for 5 min at room temperature—Mix B. The two mixes A and B were mixed and incubated at room temperature for an additional fifteen minutes. An additional 50 μl of OptiMEM was added, gently mixed and this mixture was added to the cells in the 96-well plate. The above quantities are requirements per well of a 96-well plate. Master mixes were made for the entire plate, with proportional quantity of reagents being used. • 5 h after transfection, compounds were added to the wells in DMEM without phenol red and containing 10% CS-FBS, maintaining a final DMSO concentration of 0.5%. A typical dose response curve starts at 10 μM and includes a 7-point, log dilution, done in triplicates. • After overnight incubation with the compounds, 100 ul of working solution of Steadyglow reagent was added to the wells. • The plates were placed in a shaker for 15 min at the end of which the lysate containing luciferase was transferred to a white flat-bottom plate and read under a luminescence setting in Victor. • Background subtracted counts (Luminescence from DMSO control wells is considered the background) are used to calculate percentage activity, expressed relative to activity with 1 μM (Dihydrotestosterone) DHT (at least two sets of triplicates for 1 μM DHT are included per plate).
The EC50 curves for the compounds for 8 compound concentrations were fitted by the respective function using non-linear least-squares regression in Graphpad Prism 4.0 (Graphpad Software, San Diego, Calif., USA).

[2] = read-out: Biological activity (C2C12 cell) EC50

SMILES	melting point	Emax [1]	EC50 [1, 2]	% Biological activity (C2C12 cell) 100 nM [1]	% Biological activity (C2C12 cell) 5 μM [1]	EC50 ([1]; Biological activity (C2C12 cell) EC50 (nM))
Cc1c(N2C(=O)N(C)C3(CCCC3O)C2=O)ccc(C#N)c1Cl (centres unmarked)	188 °C	–	–	–	–	–
Cc1c(N2C(=O)OC3(CCCC3O)C2=O)ccc(C#N)c1Cl (centres unmarked)	150 °C	–	–	–	–	–
Cc1c(N2C(=O)N(C)C3(CCCC3O)C2O)ccc(C#N)c1Cl (mixture of isomers) [Example 1.2, 2-chloro-4-(4,6-dihydroxy-1-methyl-2-oxo-1,3-diazaspiro[4.4]nonan-3-yl)-3-methylbenzonitrile]	179 °C	79%	930 nM	–	–	–
Cc1c(N2C(=O)N(C)C3(CCCC3=O)C2=O)ccc(C#N)c1Cl (racemic) [Example 1.1, 2-chloro-3-methyl-4-(1-methyl-2,4,6-trioxo-1,3-diazaspiro[4.4]nonan-3-yl)benzonitrile]	161 °C	60%	847 nM	–	–	–
Cc1c(N2C(=O)N(C)C3(CCC(F)C3)C2=O)ccc(C#N)c1Cl (single isomer, unassigned)	162 °C	–	–	–	–	–
Cc1c(N2C(=O)N(C)C3(CCCC3CO)C2=O)ccc(C#N)c1Cl (centres unmarked) [Example 1.6, 2-chloro-4-(6-(hydroxymethyl)-1-methyl-2,4-dioxo-1,3-diazaspiro[4.4]nonan-3-yl)-3-methylbenzonitrile]	157 °C	–	–	28%	75%	–
Cc1c(N2C(=O)N(C)C3(CCCC3)C2=O)ccc(C#N)c1Cl [Example 3.0, 2-chloro-3-methyl-4-(1-methyl-2,4-dioxo-1,3-diazaspiro[4.4]nonan-3-yl)benzonitrile]	154 °C	100%	0.41 nM	–	–	–
COCCN1C(=O)N(c2ccc(C#N)c(Cl)c2C)C(=O)C12CCCC2 [Example 3.1, 2-chloro-4-(1-(2-methoxyethyl)-2,4-dioxo-1,3-diazaspiro[4.4]nonan-3-yl)-3-methylbenzonitrile]	115 °C	96%	105 nM	–	–	–
CCN1C(=O)N(c2ccc(C#N)c(Cl)c2C)C(=O)C12CCCC2 [Example 3.2, 2-chloro-4-(1-ethyl-2,4-dioxo-1,3-diazaspiro[4.4]nonan-3-yl)-3-methylbenzonitrile]	94 °C	83%	23.5 nM	–	–	–
Cc1c(N2C(=O)N(C)C3(CCC(O)C3)C2=O)ccc(C#N)c1Cl (centres unmarked) [Example 6.0, 2-chloro-4-(7-hydroxy-1-methyl-2,4-dioxo-1,3-diazaspiro[4.4]nonan-3-yl)-3-methylbenzonitrile]	–	70%	53 nM	–	–	–
Cc1c(N2C(=O)N(CCc3ccncc3)C3(CCCC3)C2=O)ccc(C#N)c1Cl [Example 8.2, 2-chloro-4-(2,4-dioxo-1-(2-(pyridin-4-yl)ethyl)-1,3-diazaspiro[4.4]nonan-3-yl)-3-methylbenzonitrile]	–	70%	203 nM	–	–	–
Cc1cnc(CN2C(=O)N(c3ccc(C#N)c(Cl)c3C)C(=O)C23CCCC3)o1 [Example 8.7, 2-chloro-3-methyl-4-(1-((5-methyloxazol-2-yl)methyl)-2,4-dioxo-1,3-diazaspiro[4.4]nonan-3-yl)benzonitrile]	–	112%	8.9 nM	–	–	–
Cc1c(N2C(=O)N(Cc3ncc(CO)o3)C3(CCCC3)C2=O)ccc(C#N)c1Cl [Example 8.8, 2-chloro-4-(1-((5-(hydroxymethyl)oxazol-2-yl)methyl)-2,4-dioxo-1,3-diazaspiro[4.4]nonan-3-yl)-3-methylbenzonitrile]	–	–	–	26%	70%	–
Cc1c(N2C(=O)N(Cc3cnco3)C3(CCCC3)C2=O)ccc(C#N)c1Cl [Example 8.9, 2-chloro-3-methyl-4-(1-(oxazol-5-ylmethyl)-2,4-dioxo-1,3-diazaspiro[4.4]nonan-3-yl)benzonitrile]	–	87%	25 nM	–	–	–
Cc1ncc(CN2C(=O)N(c3ccc(C#N)c(Cl)c3C)C(=O)C23CCCC3)o1 [Example 8.10, 2-chloro-3-methyl-4-(1-((2-methyloxazol-5-yl)methyl)-2,4-dioxo-1,3-diazaspiro[4.4]nonan-3-yl)benzonitrile]	–	–	–	20%	66%	–
Cc1c(N2C(=O)N(CCF)C3(CCCC3)C2=O)ccc(C#N)c1Cl [Example 9.0, 2-chloro-4-(1-(2-fluoroethyl)-2,4-dioxo-1,3-diazaspiro[4.4]nonan-3-yl)-3-methylbenzonitrile]	–	99%	–	–	–	45.4 nM
Cc1c(N2C(=O)N(CCCCCC#N)C3(CCCC3)C2=O)ccc(C#N)c1Cl [Example 9.1, 2-chloro-4-(1-(5-cyanopentyl)-2,4-dioxo-1,3-diazaspiro[4.4]nonan-3-yl)-3-methylbenzonitrile]	–	108%	8.7 ± 2.1 nM	–	–	–
Cc1c(N2C(=O)N(CCOCC#N)C3(CCCC3)C2=O)ccc(C#N)c1Cl [Example 9.3, 2-chloro-4-(1-(2-(cyanomethoxy)ethyl)-2,4-dioxo-1,3-diazaspiro[4.4]nonan-3-yl)-3-methylbenzonitrile]	–	91%	19.9 ± 1.7 nM	–	–	–
Cc1c(N2C(=O)N(CCCC#N)C3(CCCC3)C2=O)ccc(C#N)c1Cl [Example 9.4, 2-chloro-4-(1-(3-cyanopropyl)-2,4-dioxo-1,3-diazaspiro[4.4]nonan-3-yl)-3-methylbenzonitrile]	–	90%	26.5 nM	–	–	–
Cc1c(N2C(=O)N(CCCCC#N)C3(CCCC3)C2=O)ccc(C#N)c1Cl [Example 9.6, 2-chloro-4-(1-(4-cyanobutyl)-2,4-dioxo-1,3-diazaspiro[4.4]nonan-3-yl)-3-methylbenzonitrile]	–	90%	45 nM	–	–	–
Cc1c(N2C(=O)N(CCC#N)C3(CCCC3)C2=O)ccc(C#N)c1Cl [Example 9.8, 2-chloro-4-(1-(2-cyanoethyl)-2,4-dioxo-1,3-diazaspiro[4.4]nonan-3-yl)-3-methylbenzonitrile]	–	85%	169 ± 82 nM	–	–	–
Cc1c(N2C(=O)N(CCCF)C3(CCCC3)C2=O)ccc(C#N)c1Cl [Example 9.9, 2-chloro-4-(1-(3-fluoropropyl)-2,4-dioxo-1,3-diazaspiro[4.4]nonan-3-yl)-3-methylbenzonitrile]	–	–	–	27%	52%	–
